Patent US20120165331A1, “Di/tri-aza-spiro-C9-C11alkanes” (priority 2010, published 2012)

Key:
human orexin 2 receptor [1] = biological target: T1, human orexin 2 receptor (Homo sapiens, UniProt O43614); test: Radioligand binding assay ([3H]-SB649868 competition), human orexin 2 receptor; settings: radioligand [3H]-SB649868; read-out: Binding hOx2R Kd
T1 construct: expressed in transfected cells
T1 sequence (O43614 1-444): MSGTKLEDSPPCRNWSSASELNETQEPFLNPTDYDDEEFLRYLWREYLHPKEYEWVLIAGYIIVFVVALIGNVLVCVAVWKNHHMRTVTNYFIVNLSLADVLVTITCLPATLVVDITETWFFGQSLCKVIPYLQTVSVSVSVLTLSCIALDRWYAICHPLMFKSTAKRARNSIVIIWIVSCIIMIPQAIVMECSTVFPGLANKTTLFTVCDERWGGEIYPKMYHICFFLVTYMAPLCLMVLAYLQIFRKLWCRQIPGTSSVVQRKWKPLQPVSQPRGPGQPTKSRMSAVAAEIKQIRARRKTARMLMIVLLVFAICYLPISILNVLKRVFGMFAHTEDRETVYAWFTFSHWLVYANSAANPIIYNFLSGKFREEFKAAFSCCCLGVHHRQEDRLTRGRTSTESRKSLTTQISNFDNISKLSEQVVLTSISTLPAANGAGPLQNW
Method: (§1) Radioligand Binding Assay
(§2) For crude cell membrane preparations, cells (CHO, Chinese hamster ovary or HEK, human embryonic kidney) expressing human orexin 1 or human orexin 2 receptors, were washed with HEPES (10 mM, pH 7.5), scraped off the culture plates with the same buffer, and centrifuged at 4° C. for 5 min at 2500×g. The cell pellet was either stored at −80° C. or used directly. Before the experiments, cell membranes were re-suspended in binding assay buffer (10 mM HEPES, 0.5% (w/v) bovine serum albumin, pH 7.5) by homogenisation with a Polytron homogeniser at 50 Hz for 20 s. Cell membranes were also used as made available by commercial providers.
(§3) Bound radioactivity was measured, and data were analysed with the program XLFIT or Graphpad Prism. Protein concentration was determined according to the Bradford/BioRad Protein Assay Kit.
(§4) In competition experiments, cell homogenates (150 μl) were incubated in assay buffer (10 mM HEPES, pH 7.5, 0.5% (w/v) bovine serum albumin, 5 mM MgCl2, 1 mMCaCl2, and tween 0.05%) for 1 h at room temperature with about 1 nM of the radioligand [^3H]-SB649868, 66 Ci/mmole, 50 μl), and with various concentrations of compounds of the invention (50 μl) in triplicates; non-specific binding was determined in the presence of almorexant (10 μM). Reactions were terminated by vacuum filtration, 3 washes of ice cold wash buffer (Tris-HCl pH 7.4/10 mM, with NaCl 154 mM). Competition data is expressed in Table 1 as Kd [μM].

human orexin 1 receptor [2] = biological target: T2, human orexin 1 receptor (Homo sapiens, UniProt O43613); test: Radioligand binding assay ([3H]-SB649868 competition), human orexin 1 receptor; settings: radioligand [3H]-SB649868; read-out: Binding hOx1R Kd
T2 construct: expressed in transfected cells
T2 sequence (O43613 1-425): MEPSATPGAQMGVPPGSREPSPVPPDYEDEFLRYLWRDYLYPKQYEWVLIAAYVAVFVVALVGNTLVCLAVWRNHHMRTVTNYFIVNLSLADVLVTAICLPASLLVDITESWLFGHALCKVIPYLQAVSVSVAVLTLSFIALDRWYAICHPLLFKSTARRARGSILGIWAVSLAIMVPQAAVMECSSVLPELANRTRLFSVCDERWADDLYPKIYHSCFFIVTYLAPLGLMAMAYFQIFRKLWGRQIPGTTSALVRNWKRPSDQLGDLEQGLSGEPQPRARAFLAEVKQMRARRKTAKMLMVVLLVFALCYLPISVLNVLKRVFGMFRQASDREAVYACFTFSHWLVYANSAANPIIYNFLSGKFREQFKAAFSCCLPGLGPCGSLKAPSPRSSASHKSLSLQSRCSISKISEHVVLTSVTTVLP
Method: as §1, §2, §3, §4

human orexin 2 receptor [3] = biological target: T1, human orexin 2 receptor; test: Calcium accumulation in cells (FLIPR), antagonism of orexin A, human orexin 2 receptor; assay type: cell-based; settings: calcium accumulation, antagonism of orexin A, Cheng-Prusoff corrected; read-out: FLIPR hOx2R Ki
human orexin 1 receptor [4] = biological target: T2, human orexin 1 receptor; test: Calcium accumulation in cells (FLIPR), antagonism of orexin A, human orexin 1 receptor; assay type: cell-based; settings: for Ki: calcium accumulation, antagonism of orexin A, Cheng-Prusoff corrected, read-out: FLIPR hOx1R Ki; for inhibition at 10 µM: measured at a concentration of 10 μM of compound, read-out: FLIPR hOx1R % inhibition

SMILES | Kd (human orexin 2 receptor [1]) [nM] | Kd (human orexin 1 receptor [2]) [nM] | Ki (human orexin 2 receptor [3]) [nM] | Ki (human orexin 1 receptor [4]) [nM] | inhibition at 10 µM (human orexin 1 receptor [4]) [%]
COc1cc(C)nc(N2CC[C@]3(CCCN(Cc4c[nH]c5ccccc45)C3=O)C2)n1 (single isomer, unassigned) [Example 7.9] | 12 | 12 | 1.9 | 10 | –
COc1cc(C)nc(N2CC[C@@]3(CCCN(Cc4c[nH]c5ccccc45)C3=O)C2)n1 (single isomer, unassigned) [Example 7.10] | 238 | 750 | 14 | 139 | –
Cc1cc(C)nc(N2CCC3(CC2)NCCN(Cc2c[nH]c4ccc(F)cc24)C3=O)n1 [Example 1.4, 9-(4,6-Dimethylpyrimidin-2-yl)-4-((5-fluoro-1H-indol-3-yl)methyl)-1,4,9-triazaspiro[5.5]undecan-5-one] | 17 | 770 | 6 | 601 | –
COc1cccc(-c2nn(C)nc2CN2CCNC3(CCN(c4nc(C)cc(C)n4)CC3)C2=O)c1 [Example 1.5, 9-(4,6-Dimethylpyrimidin-2-yl)-4-((5-(3-methoxyphenyl)-2-methyl-2H-1,2,3-triazol-4-yl)methyl)-1,4,9-triazaspiro[5.5] undecan-5-one] | 31 | 928 | 7 | 1490 | –
COc1cc(C)nc(N2CCC3(CC2)NCCN(Cc2c[nH]c4ccccc24)C3=O)n1 [Example 1.8, 4-((1H-Indol-3-yl)methyl)-9-(4-methoxy-6-methylpyrimidin-2-yl)-1,4,9-triazaspiro[5.5] undecan-5-one] | 19 | 679 | 8 | 906 | –
COc1cccc(-c2ocnc2CN2CCNC3(CCN(c4nc(C)cc(C)n4)CC3)C2=O)c1 [Example 1.9, 9-(4,6-Dimethylpyrimidin-2-yl)-4-((5-(3-methoxyphenyl)oxazol-4-yl)methyl)-1,4,9-triazaspiro[5.5] undecan-5-one] | 25 | 397 | 4 | 230 | –
COc1cccc(-c2ocnc2CN2CCNC3(CCN(c4nccc(C)n4)CC3)C2=O)c1 [Example 1.10, 4-((5-(3-Methoxyphenyl)oxazol-4-yl)methyl)-9-(4-methyl-pyrimidin-2-yl)-1,4,9-triazaspiro[5.5] undecan-5-one] | 164 | 3970 | 84 | 2610 | –
COc1cccc(-c2ocnc2CN2CCNC3(CCN(c4nc(C)cc(C#N)n4)CC3)C2=O)c1 [Example 1.11, 2-(4-((5-(3-Methoxyphenyl)oxazol-4-yl)methyl)-5-oxo-1,4,9-triazaspiro[5.5]undecan-9-yl)-6-methylpyrimidine-4-carbonitrile] | 37 | 2220 | 10 | 2660 | –
COc1cccc(-c2ocnc2CN2CCNC3(CCN(c4nccc(OC)n4)CC3)C2=O)c1 [Example 1.12, 4-((5-(3-Methoxyphenyl)oxazol-4-yl)methyl)-9-(4-methoxy-pyrimidin-2-yl)-1,4,9-triazaspiro[5.5] undecan-5-one] | 230 | 686 | 65 | 621 | –
COc1cccc(-c2ocnc2CN2CCNC3(CCN(c4nc(C)cc(OC)n4)CC3)C2=O)c1 [Example 1.13, 9-(4-Methoxy-6-methylpyrimidin-2-yl)-4-((5-(3-methoxyphenyl)oxazol-4-yl)methyl)-1,4,9-triazaspiro[5.5] undecan-5-one] | 200 | 82 | 3 | 37 | –
COc1cccc(-c2oc(C)nc2CN2CCNC3(CCN(c4nc(C)cc(C)n4)CC3)C2=O)c1 [Example 1.14, 9-(4,6-Dimethylpyrimidin-2-yl)-4-((5-(3-methoxyphenyl)-2-methyloxazol-4-yl)methyl)-1,4,9-triazaspiro[5.5] undecan-5-one] | 22 | 445 | 2 | 298 | –
COc1cccc(-c2oc(C)nc2CN2CCNC3(CCN(c4nc(C)cc(C#N)n4)CC3)C2=O)c1 [Example 1.16, 2-(4-((5-(3-Methoxyphenyl)-2-methyloxazol-4-yl)methyl)-5-oxo-1,4,9-triazaspiro[5.5]undecan-9-yl)-6-methylpyrimidine-4-carbonitrile] | 188 | – | 31 | – | 35
COc1cccc(-c2sc(C)nc2CN2CCNC3(CCN(c4nc(C)cc(C#N)n4)CC3)C2=O)c1 [Example 1.25, 2-(4-((5-(3-Methoxyphenyl)-2-methylthiazol-4-yl)methyl)-5-oxo-1,4,9-triazaspiro[5.5]undecan-9-yl)-6-methylpyrimidine-4-carbonitrile] | 394 | – | 76 | – | 31
COc1cncc(-c2cn(C)nc2CN2CCNC3(CCN(c4nc(C)cc(C)n4)CC3)C2=O)c1 [Example 1.55, 9-(4,6-Dimethyl-pyrimidin-2-yl)-4-((4-(5-methoxypyridin-3-yl)-1-methyl-1H-pyrazol-3-yl)methyl)-1,4,9-triazaspiro[5.5] undecan-5-one] | 162 | 5870 | 16 | – | –
COCc1noc(-c2ccccc2CN2CCNC3(CCN(c4nc(C)cc(C)n4)CC3)C2=O)n1 [Example 1.63, 9-(4,6-dimethyl-pyrimidin-2-yl)-4-(2-(3-(methoxymethyl)-1,2,4-oxadiazol-5-yl)benzyl)-1,4,9-triazaspiro[5.5] undecan-5-one] | 252 | – | 46 | 4080 | –
COCc1cccc(-c2nn(C)nc2CN2CCNC3(CCN(c4nc(C)cc(C)n4)CC3)C2=O)c1 [Example 1.76, 9-(4,6-dimethyl-pyrimidin-2-yl)-4-((5-(3-(methoxy-methyl)phenyl)-2-methyl-2H-1,2,3-triazol-4-yl)methyl)-1,4,9-triazaspiro[5.5] undecan-5-one] | 174 | – | 86 | 1640 | –
Cc1cc(C)nc(N2CCC3(CC2)OCCN(Cc2n[nH]nc2-c2ccccc2)C3=O)n1 [Example 2.14, 9-(4,6-Dimethylpyrimidin-2-yl)-4-((5-phenyl-2H-1,2,3-triazol-4-yl)methyl)-1-oxa-4,9-diazaspiro[5.5]undecan-5-one] | 241 | – | 50 | 2720 | –
Cc1cc(C)nc(N2CCC3(CCN(Cc4c[nH]c5ccccc45)C3=O)CC2)n1 [Example 3.1, 2-((1H-Indol-3-yl)methyl)-8-(4,6-dimethylpyrimidin-2-yl)-2,8-diazaspiro[4.5]decan-1-one] | 228 | – | 32 | 1900 | –
COc1cc(C)nc(N2CCC3(CCN(Cc4c[nH]c5ccccc45)C3=O)CC2)n1 [Example 3.18, 2-(1H-Indol-3-ylmethyl)-8-(4-methoxy-6-methyl-pyrimidin-2-yl)-2,8-diaza-spiro[4.5]decan-1-one] | 1030 | – | 37 | 1240 | –
COc1cc(C)nc(N2CCC3(CCN(Cc4n[nH]c5ccccc45)C3=O)CC2)n1 [Example 3.21, 2-((1H-indazol-3-yl)methyl)-8-(4-methoxy-6-methylpyrimidin-2-yl)-2,8-diazaspiro[4.5]decan-1-one] | 699 | – | 117 | 1010 | –
